Measurements as given in patent US20250214991A1 (Oncopia Therapeutics, Inc. d/b/a/ SK Life Science Labs, priority 2022, published 2025).

Columns and labels:
[1] = target: IKZF1 (Homo sapiens (Human), UniProt Q13422+Q96SW2); assay: In vitro IKZF1 HiBit Assay (HEK293T Flp-in-HiBiT-IKZF1 stable cell line); format: cell-based; conditions: HEK293T Flp-in-HiBiT-IKZF1 stable cell line, 6 hrs incubation; for DC50: read-out: IKZF1 HiBit DC50; for Dmax: HEK-293T, read-out: IKZF1 HiBit Dmax (%)
Method in brief: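 HEK293T Flp-in cells carrying N-terminal HiBiT-tagged IKZF1 were exposed to compound (0.1% DMSO) for 6 h at 3000 cells/well. HiBiT luminescence was read after lytic LgBiT detection. DC50 and Dmax were taken from DMSO-normalized dose-response curves.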

[2] = target: T1, IKZF2 (Homo sapiens (Human), UniProt Q96SW2+Q9UKS7); assay: In vitro IKZF2 FACS Assay in Jurkat cells; format: cell-based; conditions: 24 hrs; for DC50: half maximal degradation concentration; for Dmax: maximal degradation percentage
Method: In vitro IKZF2 FACS Assay
DC50, A: <1 nM; B: 1-10 nM; C: 10-100 nM; D: 100-1000 nM; E: >1000 nM. Dmax, A: >80%; B: 60-80%; C: 40-60%; D: 20-40%; E: <20%.

[3] = target: CRBN/DDB1 (Homo sapiens (Human), UniProt Q96SW2); assay: IC50 measurements for binding to CRBN/DDB1 (HTRF); conditions: His tagged CRBN+DDB, Cy5-labeled Thalidomide probe, one hour
Method in brief: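 HTRF competition binding with 2 nM His-tagged CRBN-DDB1 complex, 60 nM Cy5-thalidomide probe and 0.4 nM anti-His Tb cryptate in 50 mM HEPES pH 7.5, 1 mM TCEP, 0.01% Brij-35, 50 mM NaCl, 0.1% BSA. Read after 1 h at room temperature; IC50 from four-parameter dose-response fit.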

[4] = target: T1, IKZF2; assay: In vitro IKZF2 HiBit Assay (HEK293T Flp-in-HiBiT cells); format: cell-based; conditions: HEK293T Flp-in-HiBiT cells, 6 hrs incubation; for DC50: read-out: IKZF2 HiBit DC50; for Dmax: HEK-293T, read-out: IKZF2 HiBit Dmax (%)
Method in brief: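 HEK293T Flp-in cells carrying an endogenous N-terminal HiBiT tag on IKZF2 were exposed to compound for 6 h at 0.1% DMSO. The dilution series was 11 doses at 3-fold, diluted from 1 mM. Nano-Glo HiBiT lytic luminescence, normalized to DMSO, gave DC50 for 50% degradation and Dmax across the concentration range, both reported in letter bins.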

CRBN/DDB1, sequence (Q96SW2 whole entry, species assumed): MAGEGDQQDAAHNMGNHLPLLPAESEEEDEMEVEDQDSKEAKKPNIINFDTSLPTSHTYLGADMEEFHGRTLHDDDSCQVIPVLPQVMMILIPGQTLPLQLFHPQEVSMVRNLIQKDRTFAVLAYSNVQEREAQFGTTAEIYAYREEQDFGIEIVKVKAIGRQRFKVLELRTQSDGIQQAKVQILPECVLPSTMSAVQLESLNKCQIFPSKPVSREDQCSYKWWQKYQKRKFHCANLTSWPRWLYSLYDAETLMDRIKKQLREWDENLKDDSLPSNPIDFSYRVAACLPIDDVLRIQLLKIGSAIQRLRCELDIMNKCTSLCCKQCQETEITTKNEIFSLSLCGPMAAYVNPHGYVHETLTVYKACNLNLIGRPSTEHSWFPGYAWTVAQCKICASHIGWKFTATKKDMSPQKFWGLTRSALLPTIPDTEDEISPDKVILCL
CRBN/DDB1, sequence (Q16531 whole entry partner, species assumed): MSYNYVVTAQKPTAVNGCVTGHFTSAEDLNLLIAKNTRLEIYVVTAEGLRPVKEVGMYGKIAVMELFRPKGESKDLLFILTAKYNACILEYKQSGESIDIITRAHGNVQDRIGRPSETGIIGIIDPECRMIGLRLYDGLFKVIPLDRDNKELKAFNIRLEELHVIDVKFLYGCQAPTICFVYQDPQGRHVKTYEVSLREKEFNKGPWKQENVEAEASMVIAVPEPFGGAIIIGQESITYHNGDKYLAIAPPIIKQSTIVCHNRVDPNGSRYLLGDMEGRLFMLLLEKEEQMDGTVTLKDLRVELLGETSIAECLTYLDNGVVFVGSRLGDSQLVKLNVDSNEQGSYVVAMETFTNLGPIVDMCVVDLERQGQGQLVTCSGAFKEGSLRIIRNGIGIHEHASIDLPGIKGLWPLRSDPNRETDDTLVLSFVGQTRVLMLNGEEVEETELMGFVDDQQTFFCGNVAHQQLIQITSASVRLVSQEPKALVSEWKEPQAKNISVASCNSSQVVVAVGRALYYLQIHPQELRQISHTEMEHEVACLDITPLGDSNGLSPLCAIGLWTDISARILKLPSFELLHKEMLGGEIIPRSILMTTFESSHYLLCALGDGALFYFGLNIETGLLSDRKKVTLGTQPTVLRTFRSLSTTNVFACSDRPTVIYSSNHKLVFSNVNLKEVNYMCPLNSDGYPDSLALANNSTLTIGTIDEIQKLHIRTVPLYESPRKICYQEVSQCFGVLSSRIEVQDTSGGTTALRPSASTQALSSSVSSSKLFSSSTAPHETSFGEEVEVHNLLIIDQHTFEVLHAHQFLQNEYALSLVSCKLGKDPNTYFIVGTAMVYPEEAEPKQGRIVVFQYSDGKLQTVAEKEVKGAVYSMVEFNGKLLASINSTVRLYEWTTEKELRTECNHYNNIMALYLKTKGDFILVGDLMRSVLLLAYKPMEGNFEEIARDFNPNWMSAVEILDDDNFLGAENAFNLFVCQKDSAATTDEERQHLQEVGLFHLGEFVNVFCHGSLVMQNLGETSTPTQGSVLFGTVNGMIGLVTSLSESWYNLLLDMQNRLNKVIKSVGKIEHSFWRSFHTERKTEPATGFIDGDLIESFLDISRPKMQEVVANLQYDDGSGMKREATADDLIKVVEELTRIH
T1 sequence (Q9UKS7 whole entry): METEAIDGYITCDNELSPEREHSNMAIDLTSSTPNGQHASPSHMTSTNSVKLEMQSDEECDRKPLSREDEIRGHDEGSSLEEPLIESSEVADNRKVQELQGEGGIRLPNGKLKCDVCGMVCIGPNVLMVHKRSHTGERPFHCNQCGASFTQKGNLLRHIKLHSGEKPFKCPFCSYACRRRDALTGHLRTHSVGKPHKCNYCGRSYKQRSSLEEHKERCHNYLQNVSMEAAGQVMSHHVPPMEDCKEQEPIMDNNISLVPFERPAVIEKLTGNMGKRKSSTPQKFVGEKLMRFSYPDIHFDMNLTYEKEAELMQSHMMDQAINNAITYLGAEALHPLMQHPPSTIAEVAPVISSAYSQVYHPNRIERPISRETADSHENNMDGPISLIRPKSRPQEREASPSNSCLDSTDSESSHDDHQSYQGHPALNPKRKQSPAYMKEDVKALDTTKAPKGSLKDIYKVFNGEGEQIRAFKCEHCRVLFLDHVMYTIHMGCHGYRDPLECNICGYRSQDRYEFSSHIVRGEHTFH
T1 sequence (Q96SW2 whole entry): as the sequence (Q96SW2 whole entry, species assumed) above
T1 sequence (Q16531 2-1140 partner): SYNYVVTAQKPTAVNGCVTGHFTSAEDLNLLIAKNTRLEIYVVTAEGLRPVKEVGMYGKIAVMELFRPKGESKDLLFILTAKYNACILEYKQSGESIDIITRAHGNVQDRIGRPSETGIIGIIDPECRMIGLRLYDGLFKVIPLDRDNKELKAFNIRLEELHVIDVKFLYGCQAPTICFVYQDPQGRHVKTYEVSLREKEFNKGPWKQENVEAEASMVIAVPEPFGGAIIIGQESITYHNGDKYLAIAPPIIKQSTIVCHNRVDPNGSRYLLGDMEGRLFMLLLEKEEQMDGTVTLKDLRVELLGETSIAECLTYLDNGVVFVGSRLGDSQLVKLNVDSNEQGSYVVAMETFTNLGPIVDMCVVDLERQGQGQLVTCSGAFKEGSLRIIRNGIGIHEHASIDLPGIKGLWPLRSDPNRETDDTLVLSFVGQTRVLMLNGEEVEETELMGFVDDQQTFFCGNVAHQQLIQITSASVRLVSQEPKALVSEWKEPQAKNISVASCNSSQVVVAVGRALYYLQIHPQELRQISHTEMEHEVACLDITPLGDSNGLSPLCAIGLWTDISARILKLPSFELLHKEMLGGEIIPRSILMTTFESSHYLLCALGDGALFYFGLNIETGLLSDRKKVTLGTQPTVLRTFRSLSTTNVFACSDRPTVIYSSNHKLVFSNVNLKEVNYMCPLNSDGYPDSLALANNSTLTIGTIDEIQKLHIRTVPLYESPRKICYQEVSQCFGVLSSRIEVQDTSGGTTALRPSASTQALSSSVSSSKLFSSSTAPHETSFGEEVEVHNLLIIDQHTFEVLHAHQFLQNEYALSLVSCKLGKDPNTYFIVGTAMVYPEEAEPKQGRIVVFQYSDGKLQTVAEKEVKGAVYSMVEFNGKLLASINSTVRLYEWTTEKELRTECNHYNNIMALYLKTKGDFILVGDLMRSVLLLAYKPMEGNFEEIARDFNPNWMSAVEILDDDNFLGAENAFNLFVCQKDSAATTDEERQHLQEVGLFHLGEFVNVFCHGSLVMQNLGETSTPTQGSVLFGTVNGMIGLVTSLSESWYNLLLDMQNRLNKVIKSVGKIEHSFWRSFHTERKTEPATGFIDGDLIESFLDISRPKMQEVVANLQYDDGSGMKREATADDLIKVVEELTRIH
IKZF1, sequence (Q13422 whole entry): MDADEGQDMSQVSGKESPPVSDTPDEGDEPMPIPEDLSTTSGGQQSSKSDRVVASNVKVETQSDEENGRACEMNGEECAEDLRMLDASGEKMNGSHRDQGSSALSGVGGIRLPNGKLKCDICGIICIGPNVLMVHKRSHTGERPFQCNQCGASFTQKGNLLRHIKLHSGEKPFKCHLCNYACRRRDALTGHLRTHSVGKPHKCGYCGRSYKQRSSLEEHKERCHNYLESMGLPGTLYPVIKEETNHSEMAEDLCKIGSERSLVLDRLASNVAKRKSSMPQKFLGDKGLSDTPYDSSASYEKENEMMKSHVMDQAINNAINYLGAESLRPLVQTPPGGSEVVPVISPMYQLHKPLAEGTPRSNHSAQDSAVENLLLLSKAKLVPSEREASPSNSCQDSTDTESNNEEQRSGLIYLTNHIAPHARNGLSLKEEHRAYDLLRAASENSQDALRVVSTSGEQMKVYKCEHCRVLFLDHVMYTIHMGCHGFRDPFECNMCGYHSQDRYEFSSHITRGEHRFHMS
IKZF1, sequence (Q96SW2 whole entry): as the sequence (Q96SW2 whole entry, species assumed) above
IKZF1, sequence (Q16531 2-1140 partner): as the sequence (Q16531 2-1140 partner) above

SMILES	DC50 [1] [nM]	Dmax [1] [%]	DC50 [2] [nM]	Dmax [2] [%]	IC50 [3] [nM]	DC50 [4] [nM]	Dmax [4] [%]
O=C1CCC(N2Cc3cc(-c4cc(CN5CCC6(CC5)CC6)cc5cncn45)ccc3C2=O)C(=O)N1 (stereo not drawn) [Example 8, 3-(5-(7-((6-azaspiro[2.5]octan-6-yl)methyl)imidazo[1,5-a]pyridin-5-yl)-1-oxoisoindolin-2-yl) piperidine-2,6-dione]	> 10000	< 20	10 to 100	40 to 60	1000 to 5000	10 to 100	40 to 60
O=C1CCC(N2Cc3c(ccc(-c4cc(CN5CCCC5)c5ccn(C6CS(=O)(=O)C6)c5n4)c3F)C2=O)C(=O)N1 (stereo not drawn) [Example 222, 3-(5-(1-(1,1-dioxidothietan-3-yl)-4-(pyrrolidin-1-ylmethyl)-1H-pyrrolo[2,3-b]pyridin-6-yl)-4-fluoro-1-oxoisoindolin-2-yl) piperidine-2,6-dione]	10 to 100	20 to 40	1 to 10	> 80	100 to 500	1 to 10	> 80
Nc1n[nH]c2c(CN3CCC(F)CC3)cc(-c3ccc4c(c3)CN(C3CCC(=O)NC3=O)C4=O)nc12 (stereo not drawn) [Example 212, 3-(5-(3-amino-7-((4-fluoropiperidin-1-yl)methyl)-1H-pyrazolo[4,3-b]pyridin-5-yl)-1-oxoisoindolin-2-yl) piperidine-2,6-dione]	1 to 10	20 to 40	10 to 100	> 80	< 100	1 to 10	60 to 80
O=C1CCC(N2Cc3cc(-c4cc(CN5CCC(F)CC5)c5ccn(C6COC6)c5n4)ccc3C2=O)C(=O)N1 (stereo not drawn) [Example 187, 3-(5-(4-((4-fluoropiperidin-1-yl)methyl)-1-(oxetan-3-yl)-1H-pyrrolo[2,3-b]pyridin-6-yl)-1-oxoisoindolin-2-yl) piperidine-2,6-dione]	> 10000	< 20	1 to 10	> 80	100 to 500	1 to 10	> 80
O=C1CCC(N2Cc3cc(-c4cc(CN5CCC(CO)C5)c5ccn(C6COC6)c5n4)ccc3C2=O)C(=O)N1 (stereo not drawn) [Example 164, 3-(5-(4-((3-(hydroxymethyl)pyrrolidin-1-yl)methyl)-1-(oxetan-3-yl)-1H-pyrrolo[2,3-b]pyridin-6-yl)-1-oxoisoindolin-2-yl) piperidine-2,6-dione]	100 to 1000	20 to 40	10 to 100	> 80	100 to 500	10 to 100	60 to 80
O=C1CCC(N2Cc3cc(-c4cc(CN5CCC(O)CC5)c5ccn(C6COC6)c5n4)ccc3C2=O)C(=O)N1 (stereo not drawn) [Example 162, 3-(5-(4-((4-hydroxypiperidin-1-yl)methyl)-1-(oxetan-3-yl)-1H-pyrrolo[2,3-b]pyridin-6-yl)-1-oxoisoindolin-2-yl) piperidine-2,6-dione]	100 to 1000	20 to 40	10 to 100	> 80	100 to 500	10 to 100	60 to 80
O=C1CCC(N2Cc3cc(-c4nc5[nH]ccc5c(CN5CCCC5)c4Cl)ccc3C2=O)C(=O)N1 (stereo not drawn) [Example 221, 3-(5-(5-chloro-4-(pyrrolidin-1-ylmethyl)-1H-pyrrolo[2,3-b]pyridin-6-yl)-1-oxoisoindolin-2-yl) piperidine-2,6-dione]	> 10000	< 20	1 to 10	> 80	100 to 500	1 to 10	> 80
CC(C)Nc1ccnc2c(CN3CCCC3)cc(-c3ccc4c(c3)CN(C3CCC(=O)NC3=O)C4=O)nc12 (stereo not drawn) [Example 236, 3-(5-(8-(isopropylamino)-4-(pyrrolidin-1-ylmethyl)-1,5-naphthyridin-2-yl)-1-oxoisoindolin-2-yl) piperidine-2,6-dione]	> 10000	< 20	> 1000	< 20	1000 to 5000	10 to 100	20 to 40
O=C1CCC(N2Cc3cc(-c4cc(CN5CCCC5)c5ccn(C6CC6)c5n4)ccc3C2=O)C(=O)N1 (stereo not drawn) [Example 119, 3-(5-(1-cyclopropyl-4-(pyrrolidin-1-ylmethyl)-1H-pyrrolo[2,3-b]pyridin-6-yl)-1-oxoisoindolin-2-yl) piperidine-2,6-dione]	1000 to 10000	20 to 40	1 to 10	> 80	1000 to 5000	< 1	> 80
O=C1CCC(N2Cc3cc(-c4cc(CN5CCCCC5)cc5cncn45)ccc3C2=O)C(=O)N1 (stereo not drawn) [Example 3, 3-(1-oxo-5-(7-(piperidin-1-ylmethyl)imidazo[1,5-a]pyridin-5-yl)isoindolin-2-yl) piperidine-2,6-dione]	> 10000	< 20	10 to 100	40 to 60	100 to 500	10 to 100	60 to 80
Cn1cc2nc(-c3ccc4c(c3)CN(C3CCC(=O)NC3=O)C4=O)cc(CN3CCCC3)c2n1 (stereo not drawn) [Example 314, 3-(5-(2-methyl-7-(pyrrolidin-1-ylmethyl)-2H-pyrazolo[4,3-b]pyridin-5-yl)-1-oxoisoindolin-2-yl) piperidine-2,6-dione]	10 to 100	20 to 40	1 to 10	> 80	100 to 500	1 to 10	> 80
O=C1CCC(N2Cc3cc(-c4cc(CN5CCCC5)c5cn[nH]c5n4)ccc3C2=O)C(=O)N1 (stereo not drawn) [Example 105, 3-(1-oxo-5-(4-(pyrrolidin-1-ylmethyl)-1H-pyrazolo[3,4-b]pyridin-6-yl)isoindolin-2-yl) piperidine-2,6-dione]	1000 to 10000	20 to 40	1 to 10	> 80	500 to 1000	1 to 10	> 80
O=C1CCC(N2Cc3cc(-c4cc(CN5CCC(O)C5)c5ccn(C6COC6)c5n4)ccc3C2=O)C(=O)N1 (stereo not drawn) [Example 158, 3-(5-(4-((3-hydroxypyrrolidin-1-yl)methyl)-1-(oxetan-3-yl)-1H-pyrrolo[2,3-b]pyridin-6-yl)-1-oxoisoindolin-2-yl) piperidine-2,6-dione]	> 10000	< 20	10 to 100	> 80	100 to 500	10 to 100	60 to 80
O=C1CCC(N2Cc3cc(-c4cc(CN5CCCC5)c5ncn(C6COC6)c5n4)ccc3C2=O)C(=O)N1 (stereo not drawn) [Example 211, 3-(5-(3-(oxetan-3-yl)-7-(pyrrolidin-1-ylmethyl)-3H-imidazo[4,5-b]pyridin-5-yl)-1-oxoisoindolin-2-yl) piperidine-2,6-dione]	> 10000	< 20	10 to 100	60 to 80	500 to 1000	10 to 100	60 to 80
O=C1CCC(N2Cc3cc(-c4ncc5cc(CN6CCCC6)ccn45)ccc3C2=O)C(=O)N1 (stereo not drawn) [Example 52, 3-(1-oxo-5-(7-(pyrrolidin-1-ylmethyl)imidazo[1,5-a]pyridin-3-yl)isoindolin-2-yl) piperidine-2,6-dione]	> 10000	< 20	10 to 100	40 to 60	500 to 1000	1 to 10	60 to 80
O=C1CCC(N2Cc3cc(-c4cc(CN5CCCC5)c5ccn(C6CCOC6)c5n4)ccc3C2=O)C(=O)N1 (stereo not drawn) [Example 170, 3-(1-oxo-5-(4-(pyrrolidin-1-ylmethyl)-1-(tetrahydrofuran-3-yl)-1H-pyrrolo[2,3-b]pyridin-6-yl)isoindolin-2-yl) piperidine-2,6-dione]	> 10000	< 20	10 to 100	60 to 80	500 to 1000	1 to 10	60 to 80
O=C1CCC(N2Cc3cc(-c4cc(CN5CCCC5)c5[nH]ncc5n4)ccc3C2=O)C(=O)N1 (stereo not drawn) [Example 307, 3-(1-oxo-5-(7-(pyrrolidin-1-ylmethyl)-1H-pyrazolo[4,3-b]pyridin-5-yl)isoindolin-2-yl) piperidine-2,6-dione]	1000 to 10000	20 to 40	1 to 10	> 80	100 to 500	1 to 10	> 80
Nc1n[nH]c2c(CN3CC4COCC(C4)C3)cc(-c3ccc4c(c3)CN(C3CCC(=O)NC3=O)C4=O)nc12 (stereo not drawn) [Example 215, 3-(5-(7-((3-oxa-7-azabicyclo[3.3.1]nonan-7-yl)methyl)-3-amino-1H-pyrazolo[4,3-b]pyridin-5-yl)-1-oxoisoindolin-2-yl) piperidine-2,6-dione]	100 to 1000	20 to 40	10 to 100	> 80	100 to 500	10 to 100	> 80
